Reference: ChEMBL document CHEMBL1133278, “1-[2-[(Heteroarylmethoxy)aryl]carbamoyl]indolines are selective and orally active 5-HT2C receptor inverse agonists” (Bioorg Med Chem Lett, 2000)

Experiments:
[1] = molecular target: Serotonin 2 receptors; 5-HT2a & 5-HT2c (Homo sapiens) (UniProt P28223+P28335); assay: Selectivity at 5-HT 2C receptor compared to serotonin 5-HT 2A receptor; type: protein assay
[2] = molecular target: 5-hydroxytryptamine receptor 2A (Homo sapiens, UniProt P28223); assay: In vitro binding affinity at human cloned 5-hydroxytryptamine 2A receptor of HEK293 cells by [3H]ketanserin displacement.; type: cell-based
[3] = molecular target: T1, 5-hydroxytryptamine receptor 2C (Homo sapiens, UniProt P28335); assay: In vitro binding affinity at human cloned 5-hydroxytryptamine 2C receptor of HEK293 cells by [3H]mesulergine displacement.; type: cell-based
T1 sequence (P28335 whole entry): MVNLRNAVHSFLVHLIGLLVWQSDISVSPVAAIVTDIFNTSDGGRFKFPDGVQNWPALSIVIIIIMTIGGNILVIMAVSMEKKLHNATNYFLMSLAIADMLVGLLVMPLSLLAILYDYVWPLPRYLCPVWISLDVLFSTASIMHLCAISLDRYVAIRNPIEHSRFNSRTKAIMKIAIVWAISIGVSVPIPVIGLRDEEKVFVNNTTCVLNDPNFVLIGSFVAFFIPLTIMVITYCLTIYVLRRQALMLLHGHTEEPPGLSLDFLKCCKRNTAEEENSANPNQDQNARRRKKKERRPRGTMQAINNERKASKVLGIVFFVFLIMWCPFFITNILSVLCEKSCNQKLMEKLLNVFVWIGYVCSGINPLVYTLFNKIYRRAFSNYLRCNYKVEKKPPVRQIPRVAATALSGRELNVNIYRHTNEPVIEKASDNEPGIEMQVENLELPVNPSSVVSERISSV

[4] = molecular target: 5-hydroxytryptamine receptor 2B (Homo sapiens, UniProt P41595); assay: In vitro binding affinity at human cloned 5-hydroxytryptamine 2B receptor of HEK293 cells by [3H]5-HT displacement.; type: cell-based
[5] = molecular target: Serotonin receptor (2b and 2c) (Homo sapiens) (UniProt P41595+P28335); assay: Selectivity at serotonin 5-HT 2C receptor compared to serotonin 5-HT 2B receptor; type: protein assay
Rattus norvegicus [6] = assay: Dose required to reverse mCPP induced hypolocomotion by 50% at 7 mg/kg, ip administration 30 min pretest in rat; type: functional; conditions: po, 0.5 h, read-out: ID50 (the source's name)
Rattus norvegicus [7] = assay: Percent reversal of mCPP induced hypolocomotion after peroral administration at 5 mg/kg in rat; type: functional; conditions: route oral

Chain of 5-hydroxytryptamine receptor 2B (P41595 whole entry): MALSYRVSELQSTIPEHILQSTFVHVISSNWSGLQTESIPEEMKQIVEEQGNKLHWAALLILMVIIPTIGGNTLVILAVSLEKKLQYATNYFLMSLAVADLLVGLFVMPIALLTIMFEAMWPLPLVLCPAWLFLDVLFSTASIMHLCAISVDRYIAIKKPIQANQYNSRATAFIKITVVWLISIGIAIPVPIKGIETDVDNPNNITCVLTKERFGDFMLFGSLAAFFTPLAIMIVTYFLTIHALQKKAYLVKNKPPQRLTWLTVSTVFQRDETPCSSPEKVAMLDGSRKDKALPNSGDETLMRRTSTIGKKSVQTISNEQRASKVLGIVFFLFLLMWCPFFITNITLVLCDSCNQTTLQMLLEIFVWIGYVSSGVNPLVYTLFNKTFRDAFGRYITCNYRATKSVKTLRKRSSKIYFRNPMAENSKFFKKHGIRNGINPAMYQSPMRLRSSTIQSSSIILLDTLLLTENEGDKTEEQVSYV
Chain of 5-hydroxytryptamine receptor 2A (P28223 whole entry): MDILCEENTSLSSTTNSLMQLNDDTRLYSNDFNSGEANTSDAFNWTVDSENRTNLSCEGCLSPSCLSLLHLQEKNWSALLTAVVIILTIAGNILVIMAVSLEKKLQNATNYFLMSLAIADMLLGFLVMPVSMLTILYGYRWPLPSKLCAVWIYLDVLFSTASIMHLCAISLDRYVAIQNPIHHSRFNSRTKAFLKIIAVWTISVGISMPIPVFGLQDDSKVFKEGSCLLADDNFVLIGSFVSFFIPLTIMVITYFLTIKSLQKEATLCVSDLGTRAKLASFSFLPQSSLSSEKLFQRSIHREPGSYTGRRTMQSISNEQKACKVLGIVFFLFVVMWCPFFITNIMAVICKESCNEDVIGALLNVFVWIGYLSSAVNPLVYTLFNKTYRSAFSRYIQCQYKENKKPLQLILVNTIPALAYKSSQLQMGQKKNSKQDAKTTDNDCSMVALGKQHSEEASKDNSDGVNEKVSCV
Chain of Serotonin 2 receptors; 5-HT2a & 5-HT2c (Homo sapiens) (P28223 whole entry, looked up, one chain of several): as the sequence (P28223 whole entry) above

Row | Compound | Selectivity [1] | Ki [2] [µM] | Ki [3] [µM] | Ki [4] [µM] | Selectivity [5] | ED50 (Rattus norvegicus [6]) [mg/kg] | Reversal (Rattus norvegicus [7]) [%]
1 | Cc1cc2c(cc1C(F)(F)F)N(C(=O)Nc1ccc(OCc3ccccn3)nn1)CC2 | 50 | 0.251 | 0.00501 | 0.0794 | 15 |  | 
2 | Cc1cc2c(cc1C(F)(F)F)N(C(=O)Nc1ccc(OCc3cncn3C)nc1)CC2 | 25 | 0.1 | 0.00398 | 0.00631 | 2 |  | 
3 | Cc1cc2c(cc1C(F)(F)F)N(C(=O)Nc1ccc(OCCc3ccccn3)nc1)CC2 | 200 | 2 | 0.01 | 0.02 | 2 |  | 
4 | Cc1cccc(COc2ccc(NC(=O)N3CCc4cc(C)c(C(F)(F)F)cc43)cn2)n1 | 160 | 1 | 0.00631 | 0.0251 | 4 |  | 
5 | O=C(Nc1ccc(OCc2ccccn2)nc1)N1CCc2cc(C(F)(F)F)ccc21 | 800 | 5.01 | 0.00631 | 0.398 | 60 | 1.6 | 
6 | Cc1cc2c(cc1Cl)N(C(=O)Nc1ccc(OCc3nccs3)nc1)CC2 | > 160 | > 0.794 | 0.00501 | 0.1 | 20 |  | 2
7 | Cc1cc2c(cc1C(F)(F)F)N(C(=O)Nc1ccc(OCc3ncccc3C)nc1)CC2 | 40 | 0.158 | 0.00398 | 0.0158 | 4 |  | 
8 | Cc1cc2c(cc1C(F)(F)F)N(C(=O)Nc1cnc(OCc3ccccn3)c(C)c1)CC2 | 100 | 0.0398 | 0.000398 | 0.00794 | 20 | 0.3 | 
9 | Cc1cc2c(cc1C(F)(F)F)N(C(=O)Nc1ccc(CCc3ccccn3)nc1)CC2 | 50 | 0.158 | 0.00316 | 0.02 | 6 |  | 
10 | Cc1cc2c(cc1Cl)N(C(=O)Nc1ccc(OCc3ccncc3)nc1)CC2 | 60 | 0.0794 | 0.00126 | 0.00794 | 6 |  | 
11 | O=C(Nc1ccc(OCc2ccccn2)nc1)N1CCc2ccc(C(F)(F)F)cc21 | 30 | 0.251 | 0.00794 | 0.251 | 30 |  | 
12 | O=C(Nc1ccc(OCc2ccccn2)nc1)N1CCc2cc(Cl)ccc21 | > 160 | > 5.01 | 0.0316 | 1 | 30 |  | 
13 | Cc1cc2c(cc1Cl)N(C(=O)Nc1ccc(OCc3nccn3C)nc1)CC2 | 50 | 0.251 | 0.00501 | 0.0126 | 2.5 |  | 
14 | O=C(Nc1ccc(OCc2ccccn2)nc1)N1CCc2c(Cl)cccc21 | 60 | 5.01 | 0.0794 | 1 | 13 |  | 
15 | Cc1cc2c(cc1C(F)(F)F)N(C(=O)Nc1ccc(OCc3ccccn3)nc1)CC2 | 1300 | 0.631 | 0.000501 | 0.0316 | 60 | 1 | 
16 | Cc1cc2c(cc1C(F)(F)F)N(C(=O)Nc1ccc(COc3ccccn3)nc1)CC2 | 20 | 0.1 | 0.00501 | 0.2 | 40 |  | 
17 | Cc1cc2c(cc1Cl)N(C(=O)Nc1ccc(OCc3cccnc3)nc1)CC2 | > 30 | > 0.794 | 0.0251 | 0.0251 | 1 |  | 
18 | Cc1cc2c(cc1C(F)(F)F)N(C(=O)Nc1ccc(OCc3cnccn3)nc1)CC2 | 630 | 0.316 | 0.000501 | 0.01 | 20 |  | 58
19 | Cc1cc2c(cc1C(F)(F)F)N(C(=O)Nc1ccc(OCc3ccccn3)cc1)CC2 | 160 | 0.398 | 0.00251 | 0.0251 | 10 |  | 84
20 | Cc1cc2c(cc1Cl)N(C(=O)Nc1ccc(OCc3ccccn3)nc1)CC2 | > 320 | > 0.794 | 0.00251 | 0.1 | 40 |  | 41
21 | O=C(Nc1ccc(OCc2ccccn2)nc1)N1CCc2cc(Br)ccc21 | 160 | 2.51 | 0.0158 | 0.501 | 30 | 2.4 | 
